Key:
[1] = molecular target: T1, wild-type hGDH (Homo sapiens, UniProt P00367); assay: Biolayer interference-based binding assay (Ni-NTA biosensor), wild-type hGDH; conditions: His-tagged wild-type hGDH 20 μg/mL on Ni-NTA biosensor; read-out: estimated KD
T1 construct: confirming that these are the full-length wild-type hGDH; made in house; host or cells: E. coli BL21 (pET-30a)
Experimental: (§1) After immobilization of His-tagged wild-type GDH or hGDHH454Y (20 μg/mL) on a Ni-NTA biosensor, the probe was immersed in a series of dilutions of EGCG to measure binding.
(§2) The inhibitor/substrate binding assays were performed in 3 steps: step one is coating the Ni-NTA biosensor with the human wild type and the mutant GDH proteins (20 μg/mL) for 30 min; step two is dipping the coated individual sensor into a series dilution of substrates or inhibitors, such as EGCG (0, 1, 10, 100, 1000, 10000 μM; 10-fold dilution) or trypsin (0, 0.08, 0.25, 0.75, 2.25, 6.75 μM; 3-fold dilution) for 100 s, to obtain the on-rate (kon); step three is dipping to wash with phosphate-buffered saline (PBS) for 100 s. to measure the off-rate (koff). The KD was calculated by dividing […].

[2] = molecular target: T2, hGDHH454Y (Homo sapiens, UniProt P00367, H507Y); assay: Biolayer interference-based binding assay (Ni-NTA biosensor), hGDHH454Y; conditions: His-tagged hGDHH454Y 20 μg/mL on Ni-NTA biosensor; read-out: estimated KD
T2 construct: made in house; host or cells: E. coli BL21 codon plus (pET-30a)
Experimental: as §1, §2

[3] = system: hGDHH454Y; assay: as above; parameters: species or system human; conditions: KD hGDHH454Y versus wild-type
Experimental: as §1, §2

[4] = molecular target: T3, bovine GDH (Bos taurus, UniProt P00366); assay: GDH inhibition assay (EZMTT detection); format: biochemical; conditions: for increase in IC50 on increasing GDH concentration by 8 times: 0.3 to 2.5 mg/mL GDH
T3 construct: purchased
Experimental: Since both GTP and EGCG are known allosteric GDH inhibitors, we tested their dose-dependent inhibition of different levels of GDH protein. […] EGCG inhibition of GDH is less affected by the GDH enzyme concentration.
[…] After 0.5 h pre-incubation, a mixture of Glu (10 mM final), NADP^+ ([…]), and the EZMTT detection reagent were added to each well, and the reaction was carried out at room temperature for 1 h before the absorbance measurement at 450 nm. To exclude assay artifacts, controls with no GDH were also used, and all experiments were carried out in triplicate and repeated 3 times.

[5] = molecular target: T3, bovine GDH; assay: Trypsin degradation assay of bovine GDH (SDS-PAGE gel); format: biochemical; conditions: 20 μg/mL trypsin; for effect on trypsin digestion of Bo.GDH: low and high concentrations (GTP 10 or 50 mM; EGCG 0.05 or 5 mM), 37 °C 1 h
Experimental: (§3) Trypsin (final concentration 20 μg/mL) were mixed with 1 mg/mL (final concentration) hGDH-H454Y or bovine-GDH or BSA, respectively, in Eppendorf (EP) tubes in a phosphate buffer (pH8; 10 mM Na3PO4, 50 mM K3PO4, 100 mM NH4HCO3, 0.1% Tween80 and 0.1% Tween). Then proteins were subjected to digestion in a wet chamber at 37 °C for 1 h. Each sample was analyzed by denaturing SDS-PAGE gel. All experiments were repeated 3 times.
(§4) 2.5 mg/mL bovine GDH (final concentration) or 2.5 mg/mL BSA proteins were mixed with various compounds (10 mM or 50 mM GTP; 0.05 mM or 5 mM EGCG) in EP tubes at room temperature for 1 h. To each tube, 20 μg/mL trypsin was added, and the reaction was carried out in a wet chamber at 37 °C for 1 h. Samples were analyzed by both denaturing SDS-PAGE gel and native-PAGE gel. All experiments were repeated 3 times.
(§5) The dried gel was placed in the imager and photographed after the bands were clear. The gray value of the bands was calculated on a uniform background using Image-J software (1.53a). The ratio of the gray value of the strips under each experimental condition to the gray value of the control strips was calculated, as it is the relative gray value of the strips under that experimental condition.

[6] = molecular target: T2, hGDHH454Y; assay: Trypsin degradation assay of hGDHH454Y (SDS-PAGE gel); format: biochemical
Experimental: as §3, §4, §5

[7] = molecular target: T4, BSA (Bos taurus, UniProt P02769); assay: Trypsin degradation assay of BSA (SDS-PAGE gel); format: biochemical, bovine
T4 construct: purchased Biosharp
Experimental: as §3, §4, §5

[8] = molecular target: T5, bovine GDH hexamer (Bos taurus, UniProt P00366); assay: Native-PAGE gel analysis of interaction of EGCG, bovine GDH and trypsin; format: biochemical
T5 construct: purchased
Description: To further understand the mechanism of EGCG promoting GDH protein degradation, we investigated the interactions among EGCG, GDH, and trypsin by native gel analysis. Because the bovine GDH protein sequence shares 98% homology with the human GDH sequence and 100% homology similarity in the substrate and regulatory binding sites, we used bovine GDH as a substitute for wild-type human GDH in our studies. […] Taken together, the mechanism might be the following: binding of EGCG to hexametric GDH breaks down the hexamer into monomers, and further EGCG–trypsin complex facilitates the GDH degradation.
as §4, §5

[9] = high concentrations: 50 mM GTP, 5 mM EGCG
[10] = lower concentrations: GTP 10 mM, EGCG 0.05 mM
[11] = 20 μg/mL trypsin, 1 mg/mL protein, 1 h

T3 sequence (P00366 58-558): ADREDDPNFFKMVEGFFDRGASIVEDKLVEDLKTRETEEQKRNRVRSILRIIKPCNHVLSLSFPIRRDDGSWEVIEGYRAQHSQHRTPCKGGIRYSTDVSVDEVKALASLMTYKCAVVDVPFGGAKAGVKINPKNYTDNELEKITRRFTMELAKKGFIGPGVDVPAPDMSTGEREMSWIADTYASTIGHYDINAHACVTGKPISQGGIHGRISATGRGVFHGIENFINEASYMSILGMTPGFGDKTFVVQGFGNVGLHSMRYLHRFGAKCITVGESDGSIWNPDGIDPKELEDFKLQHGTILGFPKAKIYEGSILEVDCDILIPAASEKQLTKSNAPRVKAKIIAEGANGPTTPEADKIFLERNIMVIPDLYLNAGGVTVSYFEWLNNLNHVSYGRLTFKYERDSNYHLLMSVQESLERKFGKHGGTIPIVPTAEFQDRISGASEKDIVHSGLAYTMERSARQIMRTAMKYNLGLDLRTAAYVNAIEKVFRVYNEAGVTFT
T5 sequence (P00366 58-558): as above
T4 sequence (P02769 25-607): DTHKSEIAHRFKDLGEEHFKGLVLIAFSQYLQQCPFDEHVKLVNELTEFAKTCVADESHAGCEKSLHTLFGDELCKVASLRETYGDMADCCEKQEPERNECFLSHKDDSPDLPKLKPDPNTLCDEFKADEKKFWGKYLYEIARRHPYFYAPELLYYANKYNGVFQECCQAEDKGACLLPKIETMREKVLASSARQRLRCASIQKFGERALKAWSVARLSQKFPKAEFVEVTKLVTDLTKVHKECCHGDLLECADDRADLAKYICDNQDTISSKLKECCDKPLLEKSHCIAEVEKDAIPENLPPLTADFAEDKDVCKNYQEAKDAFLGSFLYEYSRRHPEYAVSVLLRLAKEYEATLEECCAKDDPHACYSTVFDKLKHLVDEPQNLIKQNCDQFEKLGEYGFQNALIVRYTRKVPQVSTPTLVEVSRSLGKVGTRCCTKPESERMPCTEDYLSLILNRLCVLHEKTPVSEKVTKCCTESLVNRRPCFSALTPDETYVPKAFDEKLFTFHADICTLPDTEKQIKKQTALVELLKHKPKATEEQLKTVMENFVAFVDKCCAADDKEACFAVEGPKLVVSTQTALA
T2 sequence (P00367 54-558 H507Y): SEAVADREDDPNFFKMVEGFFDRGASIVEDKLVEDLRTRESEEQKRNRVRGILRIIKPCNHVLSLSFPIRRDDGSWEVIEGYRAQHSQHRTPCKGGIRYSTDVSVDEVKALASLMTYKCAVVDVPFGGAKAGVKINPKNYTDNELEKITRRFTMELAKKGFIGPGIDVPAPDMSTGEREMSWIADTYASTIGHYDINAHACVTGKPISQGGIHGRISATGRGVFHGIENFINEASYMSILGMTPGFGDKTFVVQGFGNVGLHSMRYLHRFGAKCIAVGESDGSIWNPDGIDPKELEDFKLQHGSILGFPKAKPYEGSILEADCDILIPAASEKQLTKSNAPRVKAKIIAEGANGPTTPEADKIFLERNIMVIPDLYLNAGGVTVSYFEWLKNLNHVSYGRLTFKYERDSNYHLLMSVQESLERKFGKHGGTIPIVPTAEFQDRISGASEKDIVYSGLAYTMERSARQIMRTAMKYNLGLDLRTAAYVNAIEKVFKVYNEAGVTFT
T1 sequence (P00367 54-558): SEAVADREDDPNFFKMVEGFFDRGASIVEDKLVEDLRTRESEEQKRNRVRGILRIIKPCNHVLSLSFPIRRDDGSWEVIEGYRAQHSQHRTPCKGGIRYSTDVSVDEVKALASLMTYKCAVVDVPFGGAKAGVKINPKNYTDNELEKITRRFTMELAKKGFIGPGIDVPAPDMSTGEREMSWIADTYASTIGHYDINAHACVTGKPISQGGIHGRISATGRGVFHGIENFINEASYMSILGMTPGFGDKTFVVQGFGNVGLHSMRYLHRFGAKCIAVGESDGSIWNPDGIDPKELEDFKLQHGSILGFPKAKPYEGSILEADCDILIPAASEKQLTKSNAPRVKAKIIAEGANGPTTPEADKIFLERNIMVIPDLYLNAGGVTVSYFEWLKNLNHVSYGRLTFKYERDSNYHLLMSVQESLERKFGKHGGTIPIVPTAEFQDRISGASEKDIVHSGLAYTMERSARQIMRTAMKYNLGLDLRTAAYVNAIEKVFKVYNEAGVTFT

Compound | Kd [1] | Kd [2] | fold stronger affinity (KD) for wild-type GDH than for the H454Y mutant [3] | increase in IC50 on increasing GDH concentration by 8 times [4] | IC50 ([4]; bovine GDH 0.3 mg/mL) | IC50 ([4]; bovine GDH 2.5 mg/mL) | effect on trypsin digestion of Bo.GDH [5] | effect on hGDHH454Y hydrolysis by trypsin ([6]; 5 mM EGCG) | effect on trypsin digestion of BSA [7, 9] | effect on trypsin digestion of BSA [7, 10] | effect on hexamers of bovine GDH ([8]; 5 mM EGCG) | monomeric GDH degradation by trypsin ([8]; 5 mM EGCG added to GDH and 20 μg/mL trypsin) | effect on hGDHH454Y hydrolysis by trypsin ([6]; GTP up to 50 mM) | degradation by trypsin alone ([5]; 1 mg/mL protein, 1 h) | degradation by trypsin alone [6, 11] | degradation by trypsin alone [7, 11] | effect on hexamers of bovine GDH ([8]; trypsin 20–500 μg/mL)
O=C(O[C@@H]1Cc2c(O)cc(O)cc2O[C@@H]1c1cc(O)c(O)c(O)c1)c1cc(O)c(O)c(O)c1 [EGCG, (−)-cis-2-(3,4,5-trihydroxyphenyl)-3,4-dihydro-1(2H)-benzopyran-3,5,7-triol 3-gallate] | 4.2 µM | 68 µM | 17 fold | 50 fold | 2.7 µM | 138 µM | greatly increased trypsin digestion in a dose-dependent manner | promote | promoted BSA degradation | essentially no significant effect | converted to monomers | more monomeric GDH degradation was observed | – | – | – | – | –
Nc1nc2c(ncn2[C@@H]2O[C@H](COP(=O)(O)OP(=O)(O)OP(=O)(O)O)[C@@H](O)[C@H]2O)c(=O)[nH]1 [GTP] | – | – | – | 1000 fold | 16 µM | 16900 µM | prevented the trypsin digestion | – | prevented BSA digestion | essentially no significant effect | – | – | no effect | – | – | – | –
Trypsin | < 1e-06 µM | 1500 µM | 10^9 fold | – | – | – | – | – | – | – | – | – | – | significant hydrolysis | did not show observable degradation | significant hydrolysis | converted to monomers
